Measurements as given in patent publication US8227489B2, “N-(aminoheteroaryl)-1H-indole-2-carboxamide derivatives, preparation thereof and therapeutic use thereof” (Sanofi-Aventis, priority 2006, dated 2012).
Structures can show the parent of a compound that is named as a salt.

Key:
TRPV1 receptor = target: T1, TRPV1 receptor (Rattus norvegicus, UniProt O35433); experiment: Inhibition of the current induced by capsaicin with regard to rat DRGs (whole cell patch clamp); assay type: cell-based; settings: DRG neuron, capsaicin 1 microM response, rat DRG neurons, read-out: % Inhibition by the DRG patch technique; for inhibition at 0.001 µM: compound at 1 nM; for inhibition at 0.01 µM: compound at 10 nM
T1 construct: The neurons of the DRG naturally express the TRPV1 receptor; endogenous in cells; host or cells: primary culture of newborn rat dorsal root ganglion neurons
T1 sequence (O35433 whole entry): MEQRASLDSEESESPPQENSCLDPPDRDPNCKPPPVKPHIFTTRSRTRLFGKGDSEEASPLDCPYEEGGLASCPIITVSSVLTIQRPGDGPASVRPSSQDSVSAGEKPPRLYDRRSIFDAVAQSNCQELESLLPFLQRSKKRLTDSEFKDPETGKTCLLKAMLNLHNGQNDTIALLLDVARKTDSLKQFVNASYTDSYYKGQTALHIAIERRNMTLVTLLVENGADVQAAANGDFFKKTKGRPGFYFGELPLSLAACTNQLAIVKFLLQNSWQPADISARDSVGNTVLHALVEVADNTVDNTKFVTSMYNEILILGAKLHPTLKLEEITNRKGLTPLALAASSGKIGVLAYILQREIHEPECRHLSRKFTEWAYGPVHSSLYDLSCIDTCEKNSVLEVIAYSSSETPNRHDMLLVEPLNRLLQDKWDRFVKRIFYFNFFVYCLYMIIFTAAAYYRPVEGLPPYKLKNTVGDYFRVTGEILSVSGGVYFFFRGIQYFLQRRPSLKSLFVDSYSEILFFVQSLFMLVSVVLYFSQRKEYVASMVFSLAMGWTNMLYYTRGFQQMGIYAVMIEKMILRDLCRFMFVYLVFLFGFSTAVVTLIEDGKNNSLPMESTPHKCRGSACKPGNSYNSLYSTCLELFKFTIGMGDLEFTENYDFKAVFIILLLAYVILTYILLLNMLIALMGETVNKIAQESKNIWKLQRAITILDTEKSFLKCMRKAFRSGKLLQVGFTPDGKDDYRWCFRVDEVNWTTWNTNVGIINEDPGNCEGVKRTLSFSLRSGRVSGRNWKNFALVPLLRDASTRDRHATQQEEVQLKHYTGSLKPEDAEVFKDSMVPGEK
Description: Test of the Inhibition of the Current Induced by Capsaicin with Regard to Rat DRGs
• Primary culture of rat dorsal root ganglion (DRG) cells:
The neurons of the DRG naturally express the TRPV1 receptor.
Primary cultures of DRGs of newborn rats are prepared from one-day-old rats. Briefly, after dissection, the ganglions are trypsinized and the cells dissociated mechanically by gentle trituration. The cells are resuspended in an Eagle's basal culture medium comprising 10% of fetal calf serum, 25 mM KCl, 2 mM glutamine, 100 μg/ml of gentamicin and 50 ng/ml of NGF and then deposited on glass cover slips covered with laminin (0.25×10^6 cells per cover slip) which are subsequently placed in 12-well Corning dishes. The cells are incubated at 37° C. in a humidified atmosphere comprising 5% of CO2 and 95% of air. Cytosine β-D-arabinoside (1 μM) is added 48 h after culturing, in order to prevent the growth of non-neuronal cells. After culturing for 7-10 days, the cover slips are transferred into experimental chambers for the patch clamp studies.
The measurement chambers (volume 800 μl) comprising the cell preparation are placed on the stage of an inverted microscope (Olympus IMT2) equipped with Hoffman optics (Modulation Contrast, New York) and are observed at a magnification of 400×. The chambers are continuously perfused by gravity (2.5 ml/min) using a distributor of solutions which has 8 inlets, the single outlet of which, composed of a polyethylene tube (opening 500 μm), is placed at least 3 mm from the cell studied. The “whole cell” configuration of the patch clamp technique was used. Borosilicate glass pipettes (resistance 5-10 Mohms) are brought close to the cell using a 3D piezoelectric micromanipulator (Burleigh, PC1000). The overall currents (membrane potential set at −60 mV) are recorded with an Axopatch 1D amplifier (Axon Instruments, Foster City, Calif.) connected to a PC controlled by Pclamp8 software (Axon Instruments). The current plots are recorded on paper and simultaneously recorded digitally (sampling frequency 15 to 25 Hz) and acquired on the hard disk of the PC.
The application of a micromolar capsaicin solution produces an incoming cationic current with regard to the DRG cells (voltage set at […]). In order to minimize the desensitization of the receptors, a minimum interval of one minute between two applications of capsaicin is observed. After a control period (stabilization of the capsaicin alone response), the test compounds are applied alone at a given concentration (concentration of 10 nM or […]) for a period of time of 4 to 5 minutes, during which several capsaicin+compound tests are carried out (obtaining the maximum inhibition). The results are expressed as % of inhibition of the control capsaicin response.

TRPV1 receptors = target: T2, TRPV1 receptors (Mus musculus, UniProt Q704Y3); experiment: Mouse corneal irritation test (capsaicin-induced); assay type: in vivo; settings: compound 500 μM, 2 μl local application on cornea 10 minutes before 160 μM capsaicin
T2 construct: from tissue; host or cells: cornea of the living mouse (in vivo)
T2 sequence (Q704Y3 whole entry): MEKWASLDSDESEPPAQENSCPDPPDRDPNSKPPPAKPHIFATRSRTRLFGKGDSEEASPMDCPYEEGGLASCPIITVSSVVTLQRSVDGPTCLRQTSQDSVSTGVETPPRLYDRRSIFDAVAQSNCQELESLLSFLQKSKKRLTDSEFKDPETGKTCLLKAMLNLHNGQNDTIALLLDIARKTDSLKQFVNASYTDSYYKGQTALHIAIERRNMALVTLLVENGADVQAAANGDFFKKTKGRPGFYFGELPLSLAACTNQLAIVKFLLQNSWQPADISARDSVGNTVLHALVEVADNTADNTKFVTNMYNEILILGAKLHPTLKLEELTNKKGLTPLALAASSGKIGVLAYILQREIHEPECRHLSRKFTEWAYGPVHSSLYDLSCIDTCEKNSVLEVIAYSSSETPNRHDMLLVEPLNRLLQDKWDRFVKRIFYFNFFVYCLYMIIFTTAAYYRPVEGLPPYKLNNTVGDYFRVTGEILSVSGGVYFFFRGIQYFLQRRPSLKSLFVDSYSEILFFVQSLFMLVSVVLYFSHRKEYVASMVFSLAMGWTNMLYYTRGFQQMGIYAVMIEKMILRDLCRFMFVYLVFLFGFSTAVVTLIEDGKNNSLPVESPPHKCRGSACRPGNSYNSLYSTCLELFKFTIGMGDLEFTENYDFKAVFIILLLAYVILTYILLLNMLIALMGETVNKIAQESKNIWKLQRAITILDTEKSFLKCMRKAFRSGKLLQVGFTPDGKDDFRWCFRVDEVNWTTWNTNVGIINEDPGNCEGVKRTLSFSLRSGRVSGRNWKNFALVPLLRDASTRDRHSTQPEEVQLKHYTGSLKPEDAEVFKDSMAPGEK
Description: Mouse Corneal Irritation Test
The irritating nature of capsaicin is easily assessed on the cornea since this organ is one of the most innervated by C fibers. In this context, according to preliminary experiments, the application of a very small amount of capsaicin (2 μl at a concentration of 160 μM) at the surface of the cornea of an animal results in a number of kinds of stereotyped behavior related to irritation which are easy to record. These include: blinking of the eye, rubbing of the instilled eye by the ipsilateral front paw, rubbing of the face with the two front paws and scratching of the ipsilateral face by the hind paw. […] Its appearance is furthermore also normal. […] It may be concluded therefrom that the duration of action of capsaicin at these doses is less than 2 minutes.
Summary of the Methodology: […]
In practice, the test product, prepared at 25 mM in DMSO and diluted for its final use in physiological saline with 10% Tween 80 to the stronger concentration of 500 μM, is administered in local application at the surface of the cornea under a volume of 2 μl, 10 minutes before the application of the capsaicin. […] During observation for 2 minutes following the instillation, the number of rubbing actions on the instilled eye by the ipsilateral front paw is counted for each animal.
For a given group, the percentage of protection is calculated as follows: […]

SMILES	melting point [°C]	further results
CC(=O)Nc1ccc(NC(=O)c2cc3cc(F)ccc3n2Cc2cccc(F)c2)cn1	252 to 254	–
CC(=O)Nc1ccc(NC(=O)c2cc3ccc(C(F)(F)F)cc3n2Cc2cccc(F)c2)cn1	293 to 295	–
CN(C)c1ccc(NC(=O)c2cc3cc(C(F)(F)F)ccc3n2Cc2cccc(F)c2)cn1 [Compound 12, N-[6-(dimethylamino)pyridin-3-yl]-5-trifluoromethyl-1-(3-fluorobenzyl)-1H-indole-2-carboxamide]	–	inhibition at 0.001 µM (TRPV1 receptor): 100%
CNc1cc(C)c(NC(=O)c2cc3cc(F)ccc3n2Cc2cccc(F)c2)cn1	215 to 217	–
Cc1cc(N(C)C)ncc1NC(=O)c1cc2cc(F)ccc2n1Cc1ccncc1 [Compound 17, N-[6-dimethylamino-4-methylpyridin-3-yl]-5-fluoro-1-(pyridin-4-ylmethyl)-1H-indole-2-carboxamide]	217 to 219	inhibition at 0.01 µM (TRPV1 receptor): 60%
CN(C)C1=CNN(NC(=O)c2cc3cc(C(F)(F)F)ccc3n2Cc2ccncc2)C=C1.Cl	268 to 272	–
CN(C)c1ncc(NC(=O)c2cc3cc(F)ccc3n2Cc2cccc(F)c2)cc1C(F)(F)F	142 to 143	–
CN(C)c1ncc(NC(=O)c2cc3cc(F)ccc3n2Cc2cccc(F)c2)cc1F	158 to 159	–
CNc1ccc(NC(=O)c2cc3cc(F)ccc3n2Cc2cccc(F)c2)cn1 [Compound 1, N-[6-(methylamino)pyridin-3-yl]-5-fluoro-1-(3-fluorobenzyl)-1H-indole-2-carboxamide]	225 to 227	inhibition at 0.001 µM (TRPV1 receptor): 53%; % P (percentage of protection) (TRPV1 receptors): 23%
Cc1cc(NC(=O)c2cc3cc(F)ccc3n2Cc2ccncc2)cnc1N(C)C [Compound 19, N-[6-dimethylamino-5-methylpyridin-3-yl]-5-fluoro-1-(pyridin-4-ylmethyl)-1H-indole-2-carboxamide]	164 to 165	inhibition at 0.01 µM (TRPV1 receptor): 33%
CN(C)C1=CNN(NC(=O)c2cc3cc(C(F)(F)F)ccc3n2Cc2cccc(F)c2)C=C1	138 to 139	–
Cc1cc(NC(=O)c2cc3cc(F)ccc3n2Cc2cccc(F)c2)cnc1N(C)C	145 to 146	–
CN(C)C1=CNN(NC(=O)c2cc3cc(F)ccc3n2Cc2cccc(F)c2)C=C1 (as salt: hydrochloride)	239 to 241	–
CNc1cc(C)c(NC(=O)c2cc3cc(F)ccc3n2Cc2ccncc2)cn1	218 to 220	–
Cc1cc(N(C)C)ncc1NC(=O)c1cc2cc(F)ccc2n1Cc1cccc(F)c1	183 to 185	–
CN(C)C1=CNN(NC(=O)c2cc3ccc(C(F)(F)F)cc3n2Cc2cccc(F)c2)C=C1	255 to 267	–
CNc1ccc(NC(=O)c2cc3cc(F)ccc3n2Cc2ccncc2)cn1	220 to 222	–
CNc1ccc(NC(=O)c2cc3cc(F)ccc3n2Cc2cccc(F)c2)c(C)n1	229 to 230	–
CN(C)c1ccc(NC(=O)c2cc3cc(F)ccc3n2Cc2cccc(F)c2)cn1.Cl	232 to 234	–
